For the series the following is noted: 298.15 K, 101.33 kPa, Liquid; for electrical conductivity: Alternating current cell with electrodes; for mass density: Pycnometric method; for viscosity: Vibrating wire viscometry.

In the NIST ThermoML archive (doi:10.1016/j.fluid.2015.03.003) one finds electrical conductivity, mass density and viscosity data, which are given here for four molecules.

± gives the expanded uncertainty stated by the source.

With `CCCCn1cc[n+](CCCC)c1.[Br-]` [1,3-dibutylimidazolium bromide], the electrical conductivity worked out at 0.918 ± 0.006 S/m; the mass density (commonly mass per unit of volume) was determined as 1200 ± 560 kg/m3; the viscosity (as a rule, the resistance of a fluid to flow) is 11.1 ± 1.8 mPa·s.

Consider `CC(C)Cn1cc[n+](CC(C)C)c1.[Br-]` [1,3-diisobutylimidazolium bromide], for which the electrical conductivity is 0.403 ± 0.006 S/m, the mass density was 1250 ± 610 kg/m3 and the viscosity is 67.6 ± 13 mPa·s.

With `CCCCn1cc[n+](C)c1.[Br-]` [1-butyl-3-methylimidazolium bromide], the electrical conductivity was found to be 0.08 ± 0.01 S/m, the mass density was determined as 1230 ± 330 kg/m3 and the viscosity is given as 363 ± 110 mPa·s.

As for `CC(C)Cn1cc[n+](C)c1.[Br-]` [1-isobutyl-3-methylimidazolium bromide], the electrical conductivity was 0.2 ± 0.004 S/m, the mass density worked out at 1260 ± 340 kg/m3 and the viscosity came out at 134 ± 28 mPa·s.
